How the values were obtained:
basal cell carcinoma = assay: Basal cell carcinoma in K14-CreER; Ptch1fl/fl; p53fl/fl mice treated with GDC-0449; format: in vivo
Protocol: Harvested skin from treated animals was processed for Hematoxylin and Eosin (H&E) staining using established protocols. Alternatively, backskin from treated animals was fixed over night in 4% paraformaldehyde/PBS solution, washed, incubated in 30% sucrose/PBS solution overnight, and embedded in frozen OCT. Sections were then cut at 8 um from the frozen blocks and stained for the apoptosis marker cleaved caspase 3 (1:1000), GFP (1:1000), or Keratin 5 (1:1000). Sections were counterstained with DAPI.

[1] = tested on: Superficial Basal Cell Carcinoma (BCC); assay: DT cell ablation in Superficial Basal Cell Carcinoma (BCC), K14CreER/+; p53loxP/loxP; PtchloxP/loxP; LGR5DTReGFP/+ mice; H&E and immunofluorescent staining; format: in vivo; conditions: 75 mg/kg GDC-0449 po BID for 38 days with Diphtheria Toxin 50 ug/kg every other day for the final 8 days, Lgr5DTR.EGFP mice (FIG. 4 A-B)
Protocol: K14^CreER/+; p53^loxP/loxP; Ptch^loxP/loxP; LGR5^DTReGFP/+ mice were generated by breeding p53^loxP/loxPPtch^loxP/loxP; LGR5^DTReGFP/+ mice with p53^loxP/loxP; Ptch^loxP/+; K14^CreER/−. Animals showing telltale signs of Superficial BCC disease such as loss of fur, scruffy coat, thickening of the ears or tail skin were put on study. Animals were typically placed on study at 7 weeks of age. K14^CreER/+; p53^loxP/loxP; Ptch^loxP/loxP; LGR5^DTReGFP/+ mice were treated with the regimes as follows. To test the effects of DT treatments on residual superficial BCC, mice were treated Vismodegib (GDC-0449) po bid at 75 mg/kg for 38 days with concomitant with Diphtheria Toxin (DT) at 50 ug/kg every other day for the final 8 days starting at […]. Control mice were treated with Vismodegib (GDC-0449) po bid at 75 mg/kg for 38 days concomitant with 200 uL IP saline for the final 8 days of treatment. In addition, animals showing signs of disease (listed above) were treated with saline or DT alone at 50 ug/kg every other day for 5 days to test the effect of single DT treatments.
Harvested skin from treated animals was processed for Hematoxylin and Eosin (H&E) staining using established protocols. Alternatively, backskin from treated animals was fixed over night in 4% paraformaldehyde/PBS solution, washed, incubated in 30% sucrose/PBS solution overnight, and embedded in frozen OCT. […]

## CS(=O)(=O)c1ccc(C(=O)Nc2ccc(Cl)c(-c3ccccn3)c2)c(Cl)c1 [GDC-0449, 2-chloro-N-[4-chloro-3-(pyridin-2-yl)phenyl]-4-(methylsulfonyl)benzamide]
Basal cell carcinoma; K14-CreER, Ptch1fl/fl, p53fl/fl mice, compared to untreated control mice (FIG. 2)
  tumor regression: extensive tumor regression
Basal cell carcinoma; after 75 mg/kg GDC-0449 po BID for 56 days (FIG. 2 C-D)
  residual disease: still observed
[1]
  tumor regression: tumor regression

Source: US10246515B2, “Methods of treating hedgehog-related diseases with an anti-LGR5 antibody” (Genentech, Inc., priority 2013, dated 2019)
